Assay results as given in patent US12049450B2, “Pyridyloxy-carboxylate derivative and preparation method therefor, herbicidal composition, and use” (Qingdao Kingagroot Chemical Compound Co., Ltd., priority 2018, dated 2024).

Key:
Test in all cases: Post-emergence test experiment (greenhouse pot, spray at 2-3 leaf stage)
Format in all cases: in vivo
Conditions in all cases: 1000 g/ha; post-emergence spray at 2-3 leaf stage; assessed after 3 weeks; fresh weight inhibition rate
[1] = tested on: Abutilon theophrasti
Method in brief: (§1)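 Weed seeds sown in soil-filled pots in greenhouse, sprayed at 2-3 leaf stage (2 weeks after sowing) with compound in acetone/tween-80 plus methyl oleate emulsible concentrate (1.5 L/ha) diluted in water. Fresh-weight growth inhibition scored after 3 weeks on 0-5 scale (5: >85%, 0: <5%).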

[2] = tested on: Galium spurium
Method in brief: as §1

[3] = tested on: Digitaria sanguinalis
Method in brief: as §1

[4] = tested on: Monochoria vaginalis
Method in brief: as §1

[5] = tested on: Echinochloa crusgalli
Method in brief: as §1

Row | Structure (SMILES) | Activity level (growth inhibition rate) Abutilon theophrasti [1] | Activity level (growth inhibition rate) Galium spurium [2] | Activity level (growth inhibition rate) Digitaria sanguinalis [3] | Activity level (growth inhibition rate) Monochoria Vaginalis [4] | Activity level (growth inhibition rate) Echinochloa crusgalli [5]
1 | CSc1cccc(COC(=O)C(C)Oc2nc(F)c(Cl)c(N)c2Cl)c1 (stereo not shown) [Compound 92] | 5 (Level 5: the growth inhibition rate is greater than 85%) | 5 (Level 5: the growth inhibition rate is greater than 85%) | 5 (Level 5: the growth inhibition rate is greater than 85%) | 5 (Level 5: the growth inhibition rate is greater than 85%) | 5 (Level 5: the growth inhibition rate is greater than 85%)
2 | CC(Oc1nc(F)c(Cl)c(N)c1Cl)C(=O)OCc1ccc(N(C)C)cc1 (stereo not shown) [Compound 93] | 5 (Level 5: the growth inhibition rate is greater than 85%) | 5 (Level 5: the growth inhibition rate is greater than 85%) | 5 (Level 5: the growth inhibition rate is greater than 85%) | 5 (Level 5: the growth inhibition rate is greater than 85%) | 5 (Level 5: the growth inhibition rate is greater than 85%)
3 | CC(Oc1nc(F)c(Cl)c(N)c1Cl)C(=O)SCc1ccccc1N=[N+]=[N-] (stereo not shown) [Compound 94] | 5 (Level 5: the growth inhibition rate is greater than 85%) | 5 (Level 5: the growth inhibition rate is greater than 85%) | 5 (Level 5: the growth inhibition rate is greater than 85%) | 5 (Level 5: the growth inhibition rate is greater than 85%) | 5 (Level 5: the growth inhibition rate is greater than 85%)
4 | CC(Oc1nc(F)c(Cl)c(N)c1Cl)C(=O)SCc1ccc(C#CCF)cc1 (stereo not shown) [Compound 95] | 5 (Level 5: the growth inhibition rate is greater than 85%) | 5 (Level 5: the growth inhibition rate is greater than 85%) | 5 (Level 5: the growth inhibition rate is greater than 85%) | 5 (Level 5: the growth inhibition rate is greater than 85%) | 5 (Level 5: the growth inhibition rate is greater than 85%)
5 | CC(Oc1nc(F)c(Cl)c(N)c1Cl)C(=O)OCc1cccc(OCC(F)(F)F)c1 (stereo not shown) [Compound 96] | 5 (Level 5: the growth inhibition rate is greater than 85%) | 5 (Level 5: the growth inhibition rate is greater than 85%) | 5 (Level 5: the growth inhibition rate is greater than 85%) | 5 (Level 5: the growth inhibition rate is greater than 85%) | 5 (Level 5: the growth inhibition rate is greater than 85%)
6 | CC(=O)Nc1ccc(CSC(=O)C(C)Oc2nc(F)c(Cl)c(N)c2Cl)cc1 (stereo not shown) [Compound 97] | 5 (Level 5: the growth inhibition rate is greater than 85%) | 5 (Level 5: the growth inhibition rate is greater than 85%) | 5 (Level 5: the growth inhibition rate is greater than 85%) | 5 (Level 5: the growth inhibition rate is greater than 85%) | 5 (Level 5: the growth inhibition rate is greater than 85%)
7 | COC(=O)c1ccc(COC(=O)C(C)Oc2nc(F)c(Cl)c(N)c2Cl)cc1 (stereo not shown) [Compound 98] | 5 (Level 5: the growth inhibition rate is greater than 85%) | 5 (Level 5: the growth inhibition rate is greater than 85%) | 5 (Level 5: the growth inhibition rate is greater than 85%) | 5 (Level 5: the growth inhibition rate is greater than 85%) | 5 (Level 5: the growth inhibition rate is greater than 85%)
8 | CC(=O)Cc1ccc(COC(=O)C(C)Oc2nc(F)c(Cl)c(N)c2Cl)cc1 (stereo not shown) [Compound 99] | 5 (Level 5: the growth inhibition rate is greater than 85%) | 5 (Level 5: the growth inhibition rate is greater than 85%) | 5 (Level 5: the growth inhibition rate is greater than 85%) | 5 (Level 5: the growth inhibition rate is greater than 85%) | 5 (Level 5: the growth inhibition rate is greater than 85%)
9 | CCOCc1cccc(C(C)OC(=O)C(C)Oc2nc(F)c(Cl)c(N)c2Cl)c1 (stereo not shown) [Compound 100] | 5 (Level 5: the growth inhibition rate is greater than 85%) | 5 (Level 5: the growth inhibition rate is greater than 85%) | 5 (Level 5: the growth inhibition rate is greater than 85%) | 5 (Level 5: the growth inhibition rate is greater than 85%) | 5 (Level 5: the growth inhibition rate is greater than 85%)
10 | CC(Oc1nc(F)c(Cl)c(N)c1Cl)C(=O)OCc1cccc(CC(N)=O)c1 (stereo not shown) [Compound 101] | 5 (Level 5: the growth inhibition rate is greater than 85%) | 5 (Level 5: the growth inhibition rate is greater than 85%) | 5 (Level 5: the growth inhibition rate is greater than 85%) | 5 (Level 5: the growth inhibition rate is greater than 85%) | 5 (Level 5: the growth inhibition rate is greater than 85%)
11 | CC(Oc1nc(F)c(Cl)c(N)c1Cl)C(=O)OCc1ccc(C2CC2Cl)cc1 (stereo not shown) [Compound 102] | 5 (Level 5: the growth inhibition rate is greater than 85%) | 5 (Level 5: the growth inhibition rate is greater than 85%) | 5 (Level 5: the growth inhibition rate is greater than 85%) | 5 (Level 5: the growth inhibition rate is greater than 85%) | 5 (Level 5: the growth inhibition rate is greater than 85%)
12 | CCC(=O)Cc1ccc(CSC(=O)C(C)Oc2nc(F)c(Cl)c(N)c2Cl)cc1 (stereo not shown) [Compound 103] | 5 (Level 5: the growth inhibition rate is greater than 85%) | 5 (Level 5: the growth inhibition rate is greater than 85%) | 5 (Level 5: the growth inhibition rate is greater than 85%) | 5 (Level 5: the growth inhibition rate is greater than 85%) | 5 (Level 5: the growth inhibition rate is greater than 85%)
13 | CC(=O)c1ccc(CCSC(=O)C(C)Oc2nc(F)c(Cl)c(N)c2Cl)cc1 (stereo not shown) [Compound 104] | 5 (Level 5: the growth inhibition rate is greater than 85%) | 5 (Level 5: the growth inhibition rate is greater than 85%) | 5 (Level 5: the growth inhibition rate is greater than 85%) | 5 (Level 5: the growth inhibition rate is greater than 85%) | 5 (Level 5: the growth inhibition rate is greater than 85%)
14 | CC(Oc1nc(F)c(Cl)c(N)c1Cl)C(=O)OCc1ccc(S(C)(=O)=O)cc1 (stereo not shown) [Compound 105] | 5 (Level 5: the growth inhibition rate is greater than 85%) | 5 (Level 5: the growth inhibition rate is greater than 85%) | 5 (Level 5: the growth inhibition rate is greater than 85%) | 5 (Level 5: the growth inhibition rate is greater than 85%) | 5 (Level 5: the growth inhibition rate is greater than 85%)
15 | COC(=O)Nc1cccc(CCOC(=O)C(C)Oc2nc(F)c(Cl)c(N)c2Cl)c1 (stereo not shown) [Compound 107] | 5 (Level 5: the growth inhibition rate is greater than 85%) | 5 (Level 5: the growth inhibition rate is greater than 85%) | 5 (Level 5: the growth inhibition rate is greater than 85%) | 5 (Level 5: the growth inhibition rate is greater than 85%) | 5 (Level 5: the growth inhibition rate is greater than 85%)
16 | CC(Oc1nc(F)c(Cl)c(N)c1Cl)C(=O)OCc1cnccn1 (stereo not shown) [Compound 121] | 5 (Level 5: the growth inhibition rate is greater than 85%) | 5 (Level 5: the growth inhibition rate is greater than 85%) | 5 (Level 5: the growth inhibition rate is greater than 85%) | 5 (Level 5: the growth inhibition rate is greater than 85%) | 5 (Level 5: the growth inhibition rate is greater than 85%)
17 | CC(Oc1nc(F)c(Cl)c(N)c1Cl)C(=O)OCc1cccnn1 (stereo not shown) [Compound 122] | 5 (Level 5: the growth inhibition rate is greater than 85%) | 5 (Level 5: the growth inhibition rate is greater than 85%) | 5 (Level 5: the growth inhibition rate is greater than 85%) | 5 (Level 5: the growth inhibition rate is greater than 85%) | 5 (Level 5: the growth inhibition rate is greater than 85%)
